From publication PMC12412055, “Parallel synthesis of 5′-amino-5′-deoxy-adenosine derivatives for focused chemical space exploration and their application as methyltransferase inhibitors” (RSC Medicinal Chemistry, 2025)
“And” between values parts separate entries of the source, which are not always exact repeats. Equal values may be shown once. Read-outs that look alike come from different tables or passages of the source. One block for each compound: values may come before it.

Legend:
SARS-CoV-2 nsp14/10 = SARS-CoV-2 nsp14/10 (Severe acute respiratory syndrome coronavirus 2, UniProt P0DTD1); assay: Fluorescence polarization (FP) FTAD displacement assay, nsp14/10; format: binding; conditions: for displacement of FTAD: 1 μM compound; for Kd: 50 nM FTAD
nsp14/10 [1] = molecular target: T1, nsp14/10 (Severe acute respiratory syndrome coronavirus 2, UniProt P0DTD1); assay: biochemical; format: binding; conditions: for Kd: read-out: KD (ITC)
METTL3/14 [2] = molecular target: T2, METTL3/14 (Homo sapiens, UniProt Q86U44); assay: Fluorescence polarization (FP) FTAD displacement assay, METTL3/14; format: binding; conditions: for KD (METTL3/14, FP-assay) / Kd / displacement of FTAD: 50 nM FTAD, 1 μM enzyme; for KD (METTL3/14, FP-assay) / Kd: compound dilution series; for displacement of FTAD: 100 μM compound
T2 construct: human METTL3 (UniProt: Q86U44 aa 252–580); Strep tag-II (C); made in house; host or cells: E. coli BL21(DE3), pETduet-1

nsp14/10 [3] = molecular target: T1, nsp14/10; assay: Microscale thermophoresis (MST) FTAD displacement assay; format: binding; conditions: 50 nM FTAD, 3-fold dilution series of nsp14/10
human DNMT2 = molecular target: human DNMT2; design: method as in PMID 39145518; conditions: probe affinity; read-out: KD of FTAD for DNMT2; cited from earlier work
METTL3/14 [4] = molecular target: T2, METTL3/14; design: method as in PMID 39145518; conditions: probe affinity; read-out: KD of FTAD for METTL3/14; cited from earlier work
nsp14/10 [5] = molecular target: T1, nsp14/10; conditions: cited from earlier work
[6] = mean ± standard deviation from duplicate measurements, 25 °C
[7] = single measurement (one of duplicates)
[8] = ligand 100 µM, triplicate wells
[9] = ligand 100 µM, triplicate wells, enzyme not printed in Table S4
[10] = 1 μM enzyme, compound dilution series, read-out: KD (nsp14/10, determined by FP-assay)
[11] = ligand 0.305 µM, dilution series
[12] = ligand 0.914 µM, dilution series
[13] = ligand 2.74 µM, dilution series
[14] = ligand 8.22 µM, dilution series
[15] = ligand 24.7 µM, dilution series
[16] = ligand 74.0 µM, dilution series

T2 sequence (Q86U44 252-580): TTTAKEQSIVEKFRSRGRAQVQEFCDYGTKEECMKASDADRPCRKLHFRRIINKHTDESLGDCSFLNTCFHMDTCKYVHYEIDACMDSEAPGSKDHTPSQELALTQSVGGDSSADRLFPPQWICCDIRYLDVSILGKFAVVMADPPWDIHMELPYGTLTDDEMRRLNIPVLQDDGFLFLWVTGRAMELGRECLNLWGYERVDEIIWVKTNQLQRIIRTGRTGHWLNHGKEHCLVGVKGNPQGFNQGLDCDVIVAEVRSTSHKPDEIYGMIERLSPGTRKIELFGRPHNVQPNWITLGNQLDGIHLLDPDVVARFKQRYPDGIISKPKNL
T2 sequence (Q9HCE5 108-444 partner limits assumed): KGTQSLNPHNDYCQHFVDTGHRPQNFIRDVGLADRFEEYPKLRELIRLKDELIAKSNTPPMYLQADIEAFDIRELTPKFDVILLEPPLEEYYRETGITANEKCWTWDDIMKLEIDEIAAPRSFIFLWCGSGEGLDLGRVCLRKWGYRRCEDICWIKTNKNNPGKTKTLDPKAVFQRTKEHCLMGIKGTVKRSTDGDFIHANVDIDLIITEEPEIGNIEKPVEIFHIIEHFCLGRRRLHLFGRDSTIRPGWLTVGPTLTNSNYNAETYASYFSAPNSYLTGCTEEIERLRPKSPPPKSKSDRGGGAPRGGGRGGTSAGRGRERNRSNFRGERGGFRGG

SMILES: Nc1ncnc2c1ncn2[C@@H]1O[C@H](CNS(=O)(=O)c2ccc(Cl)c(C(F)(F)F)c2)[C@@H](O)[C@H]1O [Compound 46, N-(((2R,3S,4R,5R)-5-(6-Amino-9H-purin-9-yl)-3,4-dihydroxy-tetrahydrofuran-2-yl)methyl)-4-chloro-3-(trifluoromethyl) benzenesulfonamide]
- displacement of FTAD (SARS-CoV-2 nsp14/10): 100%
- KD (ITC) (nsp14/10 [1]; [6]): nanomolar range
- Kd (nsp14/10 [1]; [6]): 106 ± 6 nM
- -T∆S (ITC) (nsp14/10 [1]; [7]): 15.8 kcal/mol and 13.8 kcal/mol
- stoichiometry n (ITC) (nsp14/10 [1]; [7]): 0.43 and 0.44
- Kd (nsp14/10 [1]; [7]): 111 nM and 100 nM

- total intensity, raw data (METTL3/14 [2]; [8]): 15527 and 14218 and 14357
- fluorescence polarization, raw data (METTL3/14 [2]; [9]): 13 mP and 7 mP and 8 mP
SMILES: Nc1ncnc2c1ncn2[C@@H]1O[C@H](CSCC[C@H](N)C(=O)O)[C@@H](O)[C@H]1O [SAH, S-adenosyl-L-homocysteine, reference compound]

SMILES: Nc1ncnc2c1ncn2[C@@H]1O[C@H](CN(CC[C@H](N)C(=O)O)Cc2cn(CCNC(=O)c3ccc4c(c3)C(=O)OC43c4ccc(O)cc4Oc4cc(O)ccc43)nn2)[C@@H](O)[C@H]1O [FTAD, 5-FAM-triazolyl-adenosyl-diaminobutyric acid]
- Kd (SARS-CoV-2 nsp14/10; 2-fold dilution series of nsp14/10 from 3.00 μM to 46.9 nM, read-out: KD(FTAD, nsp14/10), FP-assay): 1300 ± 300 nM
- Kd (nsp14/10 [3]): 1200 ± 100 nM
- Kd (human DNMT2): 6400 ± 700 nM
- Kd (METTL3/14 [4]): 1100 ± 100 nM

SMILES: Nc1ncnc2c1ncn2[C@@H]1O[C@H](CNS(=O)(=O)/C=C/c2ccccc2)[C@@H](O)[C@H]1O [Compound 35, (E)-N-(((2R,3S,4R,5R)-5-(6-Amino-9H-purin-9-yl)-3,4-di-hydroxytetrahydrofuran-2-yl)methyl)-2-phenylethene-1-sulfonamide]
- displacement of FTAD (SARS-CoV-2 nsp14/10): 100%
- ΔH (ITC) (nsp14/10 [1]; mean ± standard deviation from duplicate measurements): -32.86 kcal/mol
- KD (ITC) (nsp14/10 [1]; [6]): nanomolar range
- -T∆S (ITC) (nsp14/10 [1]; [7]): 24.6 kcal/mol and 22.5 kcal/mol
- stoichiometry n (ITC) (nsp14/10 [1]; [7]): 0.42 and 0.45
- Kd (nsp14/10 [1]; [7]): 151 nM and 169 nM

SMILES: Nc1ncnc2c1ncn2[C@@H]1O[C@H](CNS(=O)(=O)c2ccc(Br)c([N+](=O)[O-])c2)[C@@H](O)[C@H]1O [Compound 44, N-(((2R,3S,4R,5R)-5-(6-Amino-9H-purin-9-yl)-3,4-dihydroxytetrahydrofuran-2-yl)methyl)-4-bromo-3-nitrobenzenesulfon amide]
- inhibition of nsp14/10 (nsp14/10 [5]): low micromolar range

SMILES: Nc1ncnc2c1ncn2[C@@H]1O[C@H](CNS(=O)(=O)c2ccc3ccccc3c2)[C@@H](O)[C@H]1O [Compound 34, N-(((2R,3S,4R,5R)-5-(6-Amino-9H-purin-9-yl)-3,4-dihydroxy-tetrahydrofuran-2-yl)methyl)naphthalene-2-sulfonamide]
- KD (METTL3/14, FP-assay) (METTL3/14 [2]): low micromolar affinity
- Kd (METTL3/14 [2]): 12900 ± 2000 nM
- displacement of FTAD (METTL3/14 [2]): ~92%
- displacement of FTAD (SARS-CoV-2 nsp14/10): 100%
- KD (ITC) (nsp14/10 [1]; [6]): nanomolar range
- -T∆S (ITC) (nsp14/10 [1]; [7]): 12 kcal/mol and 14.9 kcal/mol
- stoichiometry n (ITC) (nsp14/10 [1]; [7]): 0.66 and 0.67
- Kd (nsp14/10 [1]; [7]): 165 nM and 214 nM
- binding and inhibition of nsp14/10 (nsp14/10 [5]): nanomolar range

SMILES: Nc1ncnc2c1ncn2[C@@H]1O[C@H](CNC(=O)Cc2cccc(F)c2Br)[C@@H](O)[C@H]1O [Compound 63, N-(((2R,3S,4R,5R)-5-(6-Amino-9H-purin-9-yl)-3,4-dihydroxytetra hydrofuran-2-yl)methyl)-2-(2-bromo-3-fluorophenyl)acetamide]
- Kd (SARS-CoV-2 nsp14/10; [10]): 17200 ± 5500 nM

SMILES: Nc1ncnc2c1ncn2[C@@H]1O[C@H](CNS(=O)(=O)Cc2ccc3ccccc3c2)[C@@H](O)[C@H]1O [Compound 65, N-(((2R,3S,4R,5R)-5-(6-Amino-9H-purin-9-yl)-3,4-dihydroxytetra hydrofuran-2-yl)methyl)-1-(naphthalen-2-yl)methanesulfon amide]
- Kd (SARS-CoV-2 nsp14/10; [10]): 3800 ± 780 nM

SMILES: Nc1ncnc2c1ncn2[C@@H]1O[C@H](C[C@@H](N)CC[C@H](N)C(=O)O)[C@@H](O)[C@H]1O [SFG, sinefungin, reference compound]
- displacement of FTAD (METTL3/14 [2]): 92%

SMILES: CN(C)c1cccc2c(S(=O)(=O)NC[C@H]3O[C@@H](n4cnc5c(N)ncnc54)[C@H](O)[C@@H]3O)cccc12 [Compound 42, N-(((2R,3S,4R,5R)-5-(6-Amino-9H-purin-9-yl)-3,4-dihydroxy-tetrahydrofuran-2-yl)methyl)-5-(dimethylamino)naphthalen-1-sulfonamide]
- KD (METTL3/14, FP-assay) (METTL3/14 [2]): low micromolar affinity
- Kd (METTL3/14 [2]): 22500 ± 1400 nM
- displacement of FTAD (METTL3/14 [2]): ~92%
- fluorescence polarization, raw data (METTL3/14 [2]; [11]): 144 mP and 142 mP and 140 mP
- total intensity, raw data (METTL3/14 [2]; [11]): 16997 and 14743 and 15446
- fluorescence polarization, raw data (METTL3/14 [2]; [12]): 131 mP and 134 mP and 139 mP
- total intensity, raw data (METTL3/14 [2]; [12]): 16613 and 15443 and 18075
- fluorescence polarization, raw data (METTL3/14 [2]; [13]): 128 mP and 126 mP
- total intensity, raw data (METTL3/14 [2]; [13]): 15091 and 15438 and 15739
- fluorescence polarization, raw data (METTL3/14 [2]; [14]): 116 mP and 113 mP and 115 mP
- total intensity, raw data (METTL3/14 [2]; [14]): 16190 and 14718 and 16069
- fluorescence polarization, raw data (METTL3/14 [2]; [15]): 90 mP and 84 mP and 93 mP
- total intensity, raw data (METTL3/14 [2]; [15]): 17750 and 16617 and 17703
- fluorescence polarization, raw data (METTL3/14 [2]; [16]): 40 mP and 43 mP and 54 mP
- total intensity, raw data (METTL3/14 [2]; [16]): 17281 and 16313 and 18091
- total intensity, raw data (METTL3/14 [2]; [8]): 18205 and 16177 and 16524
- fluorescence polarization, raw data (METTL3/14 [2]; [9]): 44 mP and 42 mP and 39 mP
- fluorescence polarization, raw data (METTL3/14 [2]; ligand 222 µM, dilution series): 23 mP and 28 mP and 40 mP
- total intensity, raw data (METTL3/14 [2]; ligand 222 µM, dilution series): 22984 and 20625 and 20534
- fluorescence polarization, raw data (METTL3/14 [2]; ligand 666 µM, dilution series): 30 mP and 36 mP and 33 mP
- total intensity, raw data (METTL3/14 [2]; ligand 666 µM, dilution series): 25251 and 24796 and 26626

SMILES: Nc1ncnc2c1ncn2[C@@H]1O[C@H](CNS(=O)(=O)Cc2ccccc2)[C@@H](O)[C@H]1O [Compound 66, N-(((2R,3S,4R,5R)-5-(6-Amino-9H-purin-9-yl)-3,4-dihydroxytetra hydrofuran-2-yl)methyl)-1-phenylmethanesulfonamide]
- Kd (SARS-CoV-2 nsp14/10; [10]): 42300 ± 11100 nM

- KD (METTL3/14, FP-assay) (METTL3/14 [2]): low micromolar affinity
- Kd (METTL3/14 [2]): 16100 ± 4600 nM
- displacement of FTAD (METTL3/14 [2]): ~92%
SMILES: Nc1ncnc2c1ncn2[C@@H]1O[C@H](CNS(=O)(=O)c2ccc(-c3ccccc3)cc2)[C@@H](O)[C@H]1O [Compound 40, N-(((2R,3S,4R,5R)-5-(6-Amino-9H-purin-9-yl)-3,4-dihydroxy-tetrahydrofuran-2-yl)methyl)-[1,1′-biphenyl]-4-sulfonamide]

SMILES: Cc1ccc(S(=O)(=O)NC[C@H]2O[C@@H](n3cnc4c(N)ncnc43)[C@H](O)[C@@H]2O)cc1[N+](=O)[O-] [Compound 47, N-(((2R,3S,4R,5R)-5-(6-Amino-9H-purin-9-yl)-3,4-dihydroxy-tetrahydrofuran-2-yl)methyl)-4-methyl-3-nitrobenzenesulfon amide]
- inhibition of nsp14/10 (nsp14/10 [5]): low micromolar range

SMILES: Cc1cccc(-c2cncc(C(=O)NC[C@H]3O[C@@H](n4cnc5c(N)ncnc54)[C@H](O)[C@@H]3O)c2)c1 [Compound 64, N-(((2R,3S,4R,5R)-5-(6-Amino-9H-purin-9-yl)-3,4-dihydroxytetra hydrofuran-2-yl)methyl)-5-(m-tolyl)nicotinamide]
- Kd (SARS-CoV-2 nsp14/10; [10]): 2900 ± 380 nM
